# Data from US20160029626A1 (priority 2011, published 2016).
# “Also recorded” adds a separate entry of the source.
# How the values were obtained:
# X. fastidiosa biofilm = format: cell-based, Xylella fastidiosa 9a5c strain
# X. fastidiosa [1] = format: cell-based, Xylella fastidiosa 9a5c strain
# biofilm of X. fastidiosa = format: cell-based, Xylella fastidiosa 9a5c strain
# [2] = tested on: citrus variegated chlorosis (CVC), X. fastidiosa; set-up: species or system orange pear (Citrus sinenses); details: in vivo
# X. fastidiosa [3] = tested on: X. fastidiosa; set-up: species or system orange pear (Citrus sinenses); details: in vivo
# X. fastidiosa [4] = tested on: X. fastidiosa; set-up: species or system orange pear (Citrus sinenses); details: in vivo; remark: listed apart in the source
# [5] = Degradation of NAC in Hoagland nutrient solution in greenhouse (without plants), HPLC; format: physicochemical; details: 187.5 mg/mL expected without degradation
# Protocol: A study to check the degradation of N-acetyl L-cysteine (NAC) was also performed in a Hoagland nutrient solution under the same conditions in which the in vivo experiment was carried out. The nutrient solution of Hoagland was prepared and placed in the receiving party of potted Leonard (without plants), as well as 600 mg N-acetyl L-cysteine (NAC).
# orange pear plants = experiment: Plant development under NAC treatment (phytotoxicity); format: in vivo, orange pear (Citrus sinenses)
# Protocol: 2. Experiments using NAC on infected plants: An analysis was performed with quantitative PCR, as described in sequence, to quantify the initial population of bacteria in plants. The plants were then transferred to Leonard pots, constructed from 750 mL glass bottles, cut and painted with metallic paint to prevent light penetration. Previously autoclaved, vermiculite and sand were added to the top of the vessel and in the collecting part, a Hoagland Arnon (1950) nutrient solution (FIG. 8). Two experiments were performed with different doses of N-acetyl L-cysteine (NAC), both conducted in a greenhouse (see table 1 below).
# The first of the experiments was a pilot, in which 120 mg and 600 mg of N-acetyl L -cysteine (NAC) were added to 250 mL of Hoagland & Arnon (1950). Control plants were also maintained without addition of N-acetyl L-cysteine (NAC). The second test had plants to which were added 120 mg, 600 mg and 1500 mg L30 N-acetyl cysteine (NAC) along with 250 mL of nutrient solution of Hoagland & Arnon (1950) and control experiments without the addition of the compound. 4 biological repetitions were performed for each treatment in each experiment.
# [6] = tested on: Streptococcus epidermidis, and Haemophilus influenzae, Moraxella catarrhalis; details: Zheng et al., 1999; OLOFSSON et al., 2003; cited from earlier work
# [7] = tested on: Peseudomonas aeruginosa, Klebsiella pneumoniae Enterobacter cloacae, and Staphylococcus aureus; details: Parry et al. (1976); cited from earlier work
# [8] = Quantification of NAC by HPLC in nutrient solution of Leonard pots with plants (uptake by the plant); details: for Measured Conc of NAC in the samples collected: nutrient solution after one day with the plant
compound,measurement,setting,value
"CC(=O)N[C@@H](CS)C(=O)O [NAC, N-acetyl L-cysteine]",cell mass of biofilms compared to the control condition,"X. fastidiosa biofilm; different doses of NAC (1, 2, 6 mg/mL), 14 days",reduced compared to the control condition
same,cell mass of planktonic cells,"X. fastidiosa biofilm; different doses of NAC (1, 2, 6 mg/mL), planktonic fraction",increase in mass
same,biofilm formation,"X. fastidiosa biofilm; doses of 1.0, 2.0 or 6.0 mg/mL",inhibited biofilm formation
same,CFU/mL in biofilm vs control,X. fastidiosa [1]; 1 mg/mL NAC,lower than in the control biofilm
same,reduction of number of living cells present in the biofilm,X. fastidiosa [1]; 6 mg/mL NAC,~100%
same,toxic action towards X. fastidiosa cells,"X. fastidiosa [1]; in vitro, 1.0, 2.0 or 6.0 mg/mL",toxic action; also recorded: toxic to the cells of bacteria
same,CFU of planktonic cells in serial dilution,"X. fastidiosa [1]; planktonic cells, NAC treatments, after 3 washes",not possible to count any CFU
same,lowering of EPS between control and treatment,biofilm of X. fastidiosa; 6 mg/ml NAC,about 45%
same,total amount of EPS vs control,"biofilm of X. fastidiosa; NAC 1, 2, 6 mg/mL","In control, the total amount of EPS was greater"
same,CVC symptoms after interruption of treatment,[2],symptoms were observed to be less severe; also recorded: chlorosis spots were not observed
same,CVC symptoms in the leaves,[2],"visible reduction of symptoms; also recorded: some points chlorosis in the leaves, but in smaller quantities; also recorded: hardly possible to see symptoms; also recorded: visibly smaller"
same,control of the bacterium (symptoms and number of bacterial cells in leaves),[2],effective in controlling the bacterium
same,symptoms in treated plants,[2],significant reduction of symptoms
same,symptoms later than two months after interruption of treatment,[2],resurgence of symptoms
same,amount of bacteria in each plant by qPCR,X. fastidiosa [3],does not appear to have been affected
same,number of X. fastidiosa cells isolated from plants after treatment,X. fastidiosa [4],decrease in the number of X. fastidiosa cells; also recorded: strong decrease of bacteria
same,concentration of NAC remaining in Hoagland solution,[5]; after 1 day in greenhouse,143140 µg/mL
same,concentration of NAC remaining in Hoagland solution,[5]; after 7 days in greenhouse,63220 µg/mL
same,concentration of NAC remaining in Hoagland solution,[5]; after 14 days in greenhouse,3150 µg/mL
same,plant development,orange pear plants; 1500 mg NAC in 250 mL nutrient solution,"plant development was clearly affected; also recorded: fall of leaves, wilting and visible damage to the physiological development of the plant"
same,plant development after interruption of treatment,"orange pear plants; 1500 mg NAC, two months in soil without treatment",remained less developed
same,plant development,orange pear plants; lower doses (120 and 600 mg) NAC,do not cause problems for plant development
same,adhesion of human pathogenic bacteria in epithelial cells and surface abiotic,[6],reduce the adhesion
same,efficiency regarding the adhesion of bacteria,[7],demonstrated efficiency
same,absorption of the substance by the plant,[8]; 1500 mg NAC in 250 mL,absorption of the substance by the plant does not occur
same,transport of NAC by the plant,[8]; measured concentrations below those expected (lower doses),could be transported by the plant
same,Measured Conc of NAC in the samples collected,[8]; total NAC 120 mg (expected 0.48 mg/mL),0.288 mg/mL
same,Measured Conc of NAC in the samples collected,[8]; total NAC 600 mg (expected 2.4 mg/mL),1.98 mg/mL
same,Measured Conc of NAC in the samples collected,[8]; total NAC 1500 mg (expected 6.0 mg/mL),6.156 mg/mL
